Measurements as given in US9913828B2, “Benzothiazolone compound” (Novartis AG, priority 2011, dated 2018).

Key:
[1] = system: isolated Langendorff perfused rabbit hearts; experiment: Automaticity in isolated Langendorff perfused rabbit hearts
α1A AR = biological target: T1, α1A AR (Homo sapiens, UniProt P35348); experiment: Ca2+ FLIPR assay in human adrenergic Alpha1A CHO-K1 cell line (Test 1); assay type: cell-based; conditions: read-out: CHO cells EC50 α1A AR
T1 sequence (P35348 1-466): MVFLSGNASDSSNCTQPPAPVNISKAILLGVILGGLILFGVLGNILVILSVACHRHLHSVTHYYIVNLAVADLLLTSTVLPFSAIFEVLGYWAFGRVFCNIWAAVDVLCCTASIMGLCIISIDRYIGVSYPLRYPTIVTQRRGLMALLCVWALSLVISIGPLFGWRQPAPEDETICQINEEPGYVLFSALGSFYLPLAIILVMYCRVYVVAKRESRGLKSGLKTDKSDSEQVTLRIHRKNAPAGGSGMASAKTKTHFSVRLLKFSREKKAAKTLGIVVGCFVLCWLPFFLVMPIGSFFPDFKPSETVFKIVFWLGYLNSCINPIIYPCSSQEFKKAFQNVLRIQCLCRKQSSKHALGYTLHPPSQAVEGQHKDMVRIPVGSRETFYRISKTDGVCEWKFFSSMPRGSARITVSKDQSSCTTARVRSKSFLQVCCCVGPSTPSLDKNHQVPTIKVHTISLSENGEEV
Method: Compounds acting as agonists induce a transient increase of intracellular calcium. This was recorded on the FLIPR system. A measurement of the signal baseline was first recorded every second for 2 minutes before the injection of the compounds. […] Low controls (unstimulated cells) were determined with the addition of 5 μL of assay buffer.

β2 AR = β2 AR (Homo sapiens, UniProt P07550); experiment: cAMP response in CHO cells stably transfected with human β2 adrenoceptor (Test 1)
[2] = system: isolated rabbit sino-atrial nodes; experiment: Sino-atrial node beating rate in isolated rabbit right atrium
Method: New Zealand white female rabbits were killed by exsanguination after a deep anesthesia using a mixture of ketamine/xylazine, i.v. The heart was quickly removed and placed in Tyrode's solution. […] The right atrium was separated from the rest of the heart. The preparations were mounted in a tissue bath and kept at 37±0.5° C. for at least one hour stabilization. Action potentials (AP) were intracellularly recorded with a standard glass microelectrode filled with 3 M KCl, connected to a high input impedance-neutralizing amplifier (VF-180 microelectrode amplifier, Bio-Logic). […] After one hour of stabilization, compounds were added to the Tyrode's solution at the increasing concentrations, each concentration being maintained for 30 minutes. There was no wash-out between two concentrations. Electrophysiological measurements were made by analyzing action potentials during the experimental protocol at the end of the 30 minute perfusion period. The SA spontaneous frequency was evaluated by counting the number of beats every 10 seconds to express the results in number of beats per minute (bpm). Data were expressed as mean±SEM.

Rhesus monkeys = experiment: Heart rate in vivo in rhesus monkeys after single s.c. administration; parameters: species or system rhesus monkey; conditions: s.c. bolus, up to 0.03 mg/kg; compared to formoterol
Method: Rhesus monkeys, 24 females with body weight around 4 to 8 kg, were randomized into 4 groups of n=6. The animals were restrained on a chair up to 4 hours after single subcutaneous administration of compounds, and then returned to their pens. Heart rates were measured using a Surgivet V3304 device. Values are expressed as means±SEM (n=6).

[3] = system: Wistar Han (W-H) IGS rats; experiment: Heart rate in vivo in rats after s.c. bolus; parameters: species or system rat; conditions: up to 0.3 mg/kg, compared to formoterol
Description: Wistar Han (W-H) IGS (International Genetic Standard) rats (Crl:WI(Han)) were purchased from Charles River Laboratories. Femoral arterial and venous catheters were chronically implanted and exteriorized through a spring tether-swivel system and housed in specialized cages. Arterial catheter was connected to a pressure transducer to continuously measure pulse pressure, mean arterial pressure and heart rate, which was derived from the blood pressure signal, via a digital data acquisition system. Compounds were administered via s.c catheter implanted through the skin buttun. Values are expressed as means±SEM (n=3).

Serotonin 5-HT2C = biological target: T2, Serotonin 5-HT2C (Homo sapiens, UniProt P28335); experiment: Aequorin agonist assay in CHO-K1 cells expressing recombinant Serotonin 5-HT2C and Gα16; assay type: cell-based
T2 construct: expressed in transfected cells; host or cells: CHO-K1 cells coexpressing mitochondrial apoaequorin and Gα16
Method: CHO-K1 cells coexpressing mitochondrial apoaequorin, recombinant Serotonin 5-HT2Cne and the promiscuous G protein Gα16, grown to mid-log phase in culture media without antibiotics were detached with PBS-EDTA, centrifuged and resuspended in assay buffer (DMEM/HAM's F12 with HEPES, without phenol red+0.1% BSA protease free) at a concentration of 1×10^6 cells/ml. Cells were incubated at room temperature for at least 4 h with coelenterazine h. […] For agonist testing, 50 μL of cell suspension were mixed with 50 μL of test or reference agonist in a 96-well plate. The resulting emission of light is recorded using Hamamatsu Functional Drug Screening System 6000 (FDSS 6000) luminometer. Agonist activity of test compound was expressed as a percentage of the activity of the reference agonist at its EC100 concentration.

[4] = Comparative solubilities in H2O with pH adjustment; assay type: physicochemical
Method: The relative solubilities of the free base form and the acetate and glycolate salt forms of Compound A were analysed and the results are show in the table below. Solutions were titrated with addition of HCl or NaOH for pH adjustment. The improved aqueous solubilities of the acetate and glycolate salt forms relative to the free base form of Compound A make the acetate and glycolate salts of Compound A more suitable for subcutaneous injection or infusion.

T2 sequence (P28335 33-458): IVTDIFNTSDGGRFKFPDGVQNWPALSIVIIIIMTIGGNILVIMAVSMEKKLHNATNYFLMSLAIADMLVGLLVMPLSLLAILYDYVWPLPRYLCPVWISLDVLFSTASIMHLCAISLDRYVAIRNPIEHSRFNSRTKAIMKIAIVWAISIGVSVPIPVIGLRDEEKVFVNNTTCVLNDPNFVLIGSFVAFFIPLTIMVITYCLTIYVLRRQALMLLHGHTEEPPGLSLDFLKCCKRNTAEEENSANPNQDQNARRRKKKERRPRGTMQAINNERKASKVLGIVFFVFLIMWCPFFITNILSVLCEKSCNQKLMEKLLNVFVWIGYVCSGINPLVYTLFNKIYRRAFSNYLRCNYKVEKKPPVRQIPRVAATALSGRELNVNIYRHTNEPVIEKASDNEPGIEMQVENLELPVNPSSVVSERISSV
Chain of β2 AR (P07550 whole entry): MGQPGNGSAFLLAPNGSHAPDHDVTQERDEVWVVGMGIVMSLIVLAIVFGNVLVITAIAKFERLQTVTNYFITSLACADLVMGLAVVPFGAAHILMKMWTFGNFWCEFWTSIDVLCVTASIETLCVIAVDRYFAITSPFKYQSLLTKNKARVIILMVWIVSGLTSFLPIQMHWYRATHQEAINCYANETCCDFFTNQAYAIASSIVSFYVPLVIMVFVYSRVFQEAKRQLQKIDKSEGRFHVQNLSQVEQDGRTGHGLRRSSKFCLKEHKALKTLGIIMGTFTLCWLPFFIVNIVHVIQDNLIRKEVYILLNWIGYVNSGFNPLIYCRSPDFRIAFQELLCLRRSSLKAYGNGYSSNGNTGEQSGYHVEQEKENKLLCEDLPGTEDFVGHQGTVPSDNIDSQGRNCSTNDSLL

Structure (SMILES) | melting point | direct effects on the pacemaker activity ([1]; compared to Formoterol) | Automaticity, maximum increase (n = 3) ([1]; isolated rabbit heart) | EC50 (α1A AR) | EC50 (β2 AR) | Sino-Atrial node beating rate, maximum increase (n = 6) [2] | heart rate change in rhesus monkeys (Rhesus monkeys) | heart rate change in rats [3] | fold less active on 5-HT2C when compared to the racemate or the (S) enantiomer (Serotonin 5-HT2C) | fold less active on 5-HT2C when compared to β2 AR agonist activity (Serotonin 5-HT2C; 5-HT2C EC50 versus β2 AR EC50) | Compound A free base solubility in H2O, Conc ([4]; pH 7.3) | Compound A free base solubility in H2O, Conc ([4]; pH 7.8)
CCCCOc1ccc(CC(C)(C)NC[C@H](O)c2cc(O)cc3[nH]c(=O)sc23)cc1.O=C(O)CO [Compound A glycolate salt, (R)-7-(2-(1-(4-butoxyphenyl)-2-methylpropan-2-ylamino)-1-hydroxyethyl)-5-hydroxybenzo[d]thiazol-2(3H)-one glycolate salt] | ~ 188 °C |  |  |  |  |  |  |  |  |  |  | 
CCCCOc1ccc(CC(C)(C)NC[C@H](O)c2cc(O)cc3[nH]c(=O)sc23)cc1 [Compound A, (R)-7-(2-(1-(4-butoxyphenyl)-2-methylpropan-2-ylamino)-1-hydroxyethyl)-5-hydroxybenzo[d]thiazol-2(3H)-one] |  | less direct effects | +17% | > 10 µM | < 0.01 µM | +6.2% | less heart rate increase | less heart rate increases | over 10 fold | 50 fold | <10 µg/mL | <10 µg/mL
